Experimental data taken from patent US8765773B2, “Substituted hydroxamic acids and uses thereof” (Millennium Pharmaceuticals, Inc., priority 2010, dated 2014).

Target: T1, purified human HDAC6 (Homo sapiens, UniProt Q9UBN7)
T1 construct: purchased BPS Bioscience 5006
T1 sequence (Q9UBN7 1-1215): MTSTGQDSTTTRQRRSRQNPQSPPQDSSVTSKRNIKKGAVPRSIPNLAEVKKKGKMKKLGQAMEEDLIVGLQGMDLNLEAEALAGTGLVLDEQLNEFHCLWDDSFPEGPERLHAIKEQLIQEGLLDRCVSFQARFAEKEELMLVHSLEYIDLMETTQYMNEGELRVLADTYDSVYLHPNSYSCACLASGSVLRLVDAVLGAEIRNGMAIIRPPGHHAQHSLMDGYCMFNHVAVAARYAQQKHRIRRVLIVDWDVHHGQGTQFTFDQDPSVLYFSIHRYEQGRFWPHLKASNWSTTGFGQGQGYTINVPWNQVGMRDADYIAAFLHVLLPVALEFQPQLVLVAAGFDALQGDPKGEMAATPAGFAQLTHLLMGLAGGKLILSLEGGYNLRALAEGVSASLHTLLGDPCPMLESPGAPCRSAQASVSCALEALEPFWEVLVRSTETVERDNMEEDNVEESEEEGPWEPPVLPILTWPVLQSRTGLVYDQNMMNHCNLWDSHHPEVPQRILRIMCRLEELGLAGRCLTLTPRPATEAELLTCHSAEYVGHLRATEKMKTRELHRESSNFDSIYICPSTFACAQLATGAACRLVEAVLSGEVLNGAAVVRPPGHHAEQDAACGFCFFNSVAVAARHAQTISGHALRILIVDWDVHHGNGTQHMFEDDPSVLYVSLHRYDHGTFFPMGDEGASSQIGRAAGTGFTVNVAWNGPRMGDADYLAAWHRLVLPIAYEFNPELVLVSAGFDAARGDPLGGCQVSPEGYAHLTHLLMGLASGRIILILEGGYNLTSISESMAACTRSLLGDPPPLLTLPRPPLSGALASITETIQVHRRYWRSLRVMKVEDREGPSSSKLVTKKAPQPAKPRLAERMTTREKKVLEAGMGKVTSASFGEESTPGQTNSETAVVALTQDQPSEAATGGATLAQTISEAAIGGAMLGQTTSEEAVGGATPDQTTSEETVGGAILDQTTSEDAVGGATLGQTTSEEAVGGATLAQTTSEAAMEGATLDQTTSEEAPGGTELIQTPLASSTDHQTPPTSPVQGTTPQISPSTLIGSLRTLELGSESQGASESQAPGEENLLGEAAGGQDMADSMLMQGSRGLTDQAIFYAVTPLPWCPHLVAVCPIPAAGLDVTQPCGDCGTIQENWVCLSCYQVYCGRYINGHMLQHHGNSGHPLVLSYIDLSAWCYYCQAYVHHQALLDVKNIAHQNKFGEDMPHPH
Assay: HDAC6 Enzyme Assay
Format: biochemical
Conditions: read-out: Percent Inhibition; for inhibition at 0.412 µM: compound concentration 0.412 μM; for inhibition at 0.37 µM: compound concentration 0.37 μM
Procedure, shortened: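 Readout is AMC fluorescence (Ex 340 nm, Em 460 nm) after trypsin cleavage of the deacetylated Ac-Arg-Gly-Lys(Ac)-AMC product. Reaction: purified human HDAC6, compound or vehicle, 1 hour, 30° C, quenched by trichostatin A. Single-concentration percent inhibition or IC50 calculated versus DMSO-treated samples.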

| inhibition at 0.412 µM | inhibition at 0.37 µM | SMILES |
| --- | --- | --- |
| 30.1% |  | O=C(NO)c1ccc2c(=O)n(Cc3ccc(C(F)(F)F)cc3)c(C3CCCCC3)nc2c1 [Compound I-150, 2-cyclohexyl-N-hydroxy-4-oxo-3-[4-(trifluoromethyl)benzyl]-3,4-dihydroquinazoline-7-carboxamide] |
| 96.2% |  | COc1ccc2cc(OCCCn3ccc4ccc(C(=O)NO)cc4c3=O)ccc2c1 [Compound I-151, N-hydroxy-2-{3-[(6-methoxy-2-naphthyl)oxy]propyl}-1-oxo-1,2-dihydroisoquinoline-7-carboxamide] |
| 96% |  | O=C(NO)c1ccc2ccn(CCc3c[nH]c4ccccc34)c(=O)c2c1 [Compound I-152, N-hydroxy-2-[2-(1H-indol-3-yl)ethyl]-1-oxo-1,2-dihydroisoquinoline-7-carboxamide] |
| 89.9% |  | O=C(NO)c1ccc2ccn(CCCC3CCCCC3)c(=O)c2c1 [Compound I-153, 2-(3-cyclohexylpropyl)-N-hydroxy-1-oxo-1,2-dihydroisoquinoline-7-carboxamide] |
|  | 93.9% | O=C(NO)c1ccc2ccn(-c3ccccc3)c(=O)c2c1 [Compound I-154, N-hydroxy-1-oxo-2-phenyl-1,2-dihydroisoquinoline-7-carboxamide] |
| 19.6% |  | O=C(NO)c1ccc2c(=O)[nH]c(=O)[nH]c2c1 [Compound I-155, N-hydroxy-2,4-dioxo-1,2,3,4-tetrahydroquinazoline-7-carboxamide] |
| 55.7% |  | Cn1cnc2ccc(C(=O)NO)cc2c1=O [Compound I-156, N-hydroxy-3-methyl-4-oxo-3,4-dihydroquinazoline-6-carboxamide] |
| 94.8% |  | Cc1ccccc1Cn1ccc2ccc(C(=O)NO)cc2c1=O [Compound I-157, N-hydroxy-2-(2-methylbenzyl)-1-oxo-1,2-dihydroisoquinoline-7-carboxamide] |
| 72.5% |  | O=C(NO)c1ccc2ccn(CCO)c(=O)c2c1 [Compound I-158, N-hydroxy-2-(2-hydroxyethyl)-1-oxo-1,2-dihydroisoquinoline-7-carboxamide] |
| 91.3% |  | CCN(CC)c1cccc(OCCn2ccc3ccc(C(=O)NO)cc3c2=O)c1 [Compound I-159, 2-{2-[3-(diethylamino)phenoxy]ethyl}-N-hydroxy-1-oxo-1,2-dihydroisoquinoline-7-carboxamide] |
| 87.4% |  | O=C(NO)c1ccc2ccn(CCCOc3ccccc3-c3csnn3)c(=O)c2c1 [Compound I-160, N-hydroxy-1-oxo-2-{3-[2-(1,2,3-thiadiazol-4-yl)phenoxy]propyl}-1,2-dihydroisoquinoline-7-carboxamide] |
| 67% |  | O=C(NO)c1ccc2ccn(CCOc3ccc(C45CC6CC(CC(C6)C4)C5)cc3)c(=O)c2c1 [Compound I-161, 2-(2-{4-[1-adamantyl]phenoxy}ethyl)-N-hydroxy-1-oxo-1,2-dihydroisoquinoline-7-carboxamide] |
| 94.2% |  | O=C(NO)c1ccc2ccn(Cc3ccccc3Cl)c(=O)c2c1 [Compound I-162, 2-(2-chlorobenzyl)-N-hydroxy-1-oxo-1,2-dihydroisoquinoline-7-carboxamide] |
| 92.5% |  | O=C(NO)c1ccc2ccn(CCCOCc3ccccc3)c(=O)c2c1 [Compound I-163, 2-[3-(benzyloxy)propyl]-N-hydroxy-1-oxo-1,2-dihydroisoquinoline-7-carboxamide] |
| 94.1% |  | O=C(NO)c1ccc2ncn(Cc3csc4ccc(Cl)cc34)c(=O)c2c1 [Compound I-164, 3-[(5-chloro-1-benzothien-3-yl)methyl]-N-hydroxy-4-oxo-3,4-dihydroquinazoline-6-carboxamide] |
| 59.5% |  | Cn1c(NCc2ccc(Cl)cc2)nc2ccc(C(=O)NO)cc2c1=O [Compound I-165, 2-[(4-chlorobenzyl)amino]-N-hydroxy-3-methyl-4-oxo-3,4-dihydroquinazoline-6-carboxamide] |

| inhibition at 0.412 µM | inhibition at 0.37 µM | SMILES |
| --- | --- | --- |
|  | 78.8% | Cn1c(-c2nc3cc(C(=O)NO)ccc3c(=O)n2Cc2ccc(C(F)(F)F)cc2)cc2ccccc21 [Compound I-166, N-hydroxy-2-(1-methyl-1H-indol-2-yl)-4-oxo-3-[4-(trifluoromethyl)benzyl]-3,4-dihydroquinazoline-7-carboxamide] |
| 96.1% |  | CS(=O)(=O)c1ccccc1OCCn1ccc2ccc(C(=O)NO)cc2c1=O [Compound I-167, N-hydroxy-2-{2-[2-(methylsulfonyl)phenoxy]ethyl}-1-oxo-1,2-dihydroisoquinoline-7-carboxamide] |
| 72.8% |  | O=C(NO)c1ccc2c(=O)[nH]c(COc3ccccc3C(F)(F)F)nc2c1 [Compound I-168, N-hydroxy-4-oxo-2-{[2-(trifluoromethyl)phenoxy]methyl}-3,4-dihydroquinazoline-7-carboxamide] |
| 62.8% |  | Cn1c(=O)[nH]c2ccc(C(=O)NO)cc2c1=O [Compound I-169, N-hydroxy-3-methyl-2,4-dioxo-1,2,3,4-tetrahydroquinazoline-6-carboxamide] |
| 67.1% |  | O=C(NO)c1ccc2ccn(CCCN3CCCCC3)c(=O)c2c1 [Compound I-170, N-hydroxy-1-oxo-2-(3-piperidin-1-ylpropyl)-1,2-dihydroisoquinoline-7-carboxamide] |
| 87% |  | CC(C)n1ccc2ccc(C(=O)NO)cc2c1=O [Compound I-171, N-hydroxy-2-isopropyl-1-oxo-1,2-dihydroisoquinoline-7-carboxamide] |
| 94.5% |  | O=C(NO)c1ccc2ccn(Cc3ccccc3C(F)(F)F)c(=O)c2c1 [Compound I-172, N-hydroxy-1-oxo-2-[2-(trifluoromethyl)benzyl]-1,2-dihydroisoquinoline-7-carboxamide] |
|  | 75.4% | NCCCn1ccc2ccc(C(=O)NO)cc2c1=O [Compound I-173, 2-(3-aminopropyl)-N-hydroxy-1-oxo-1,2-dihydroisoquinoline-7-carboxamide] |
|  | 98.8% | CC(C)C(=O)Nc1cccc(Cn2ccc3ccc(C(=O)NO)cc3c2=O)c1 [Compound I-174, N-hydroxy-2-[3-(isobutyrylamino)benzyl]-1-oxo-1,2-dihydroisoquinoline-7-carboxamide] |
| 95.9% |  | O=C(NO)c1ccc2ccn(CCOc3ccccc3C(F)(F)F)c(=O)c2c1 [Compound I-175, N-hydroxy-1-oxo-2-{2-[2-(trifluoromethyl)phenoxy]ethyl}-1,2-dihydroisoquinoline-7-carboxamide] |
| 94.2% |  | O=C(NO)c1ccc2ccn(CCCOc3cccc(C(F)(F)F)c3)c(=O)c2c1 [Compound I-176, N-hydroxy-1-oxo-2-{3-[3-(trifluoromethyl)phenoxy]propyl}-1,2-dihydroisoquinoline-7-carboxamide] |
|  | 93.2% | Nc1cccc(-c2cccc(Cn3cnc4ccc(C(=O)NO)cc4c3=O)c2)c1 [Compound I-177, 3-[(3′-aminobiphenyl-3-yl)methyl]-N-hydroxy-4-oxo-3,4-dihydroquinazoline-6-carboxamide] |
| 95% |  | O=C(NO)c1ccc2ccn(Cc3ccccc3CS(=O)(=O)c3ccccc3)c(=O)c2c1 [Compound I-178, N-hydroxy-1-oxo-2-{2-[(phenylsulfonyl)methyl]benzyl}-1,2-dihydroisoquinoline-7-carboxamide] |
|  | 97.5% | O=C(NO)c1ccc2ccn(-c3cccc(Cl)c3)c(=O)c2c1 [Compound I-179, 2-(3-chlorophenyl)-N-hydroxy-1-oxo-1,2-dihydroisoquinoline-7-carboxamide] |
| 97% |  | O=C(NO)c1ccc2ncn(CCOc3ccccc3)c(=O)c2c1 [Compound I-180, N-hydroxy-4-oxo-3-(2-phenoxyethyl)-3,4-dihydroquinazoline-6-carboxamide] |
|  | 92.7% | O=C(NO)c1ccc2ncn(Cc3cccc(-c4ccc(F)cc4)c3)c(=O)c2c1 [Compound I-181, 3-[(4′-fluorobiphenyl-3-yl)methyl]-N-hydroxy-4-oxo-3,4-dihydroquinazoline-6-carboxamide] |
